Reference: patent US9464113B2, “Anti-heparan sulfate peptides that block herpes simplex virus infection in vivo” (The Board of Trustees of the University of Illinois, priority 2010, dated 2016)
No end group written: not given here.

How the values were obtained:
HSV-1 (KOS) gL86 = test: HSV-1 entry into HeLa cells (ONPG and X-gal); assay type: cell-based, herpes simplex virus type-1; conditions: for blocking of HSV-1 entry/infection: HeLa cells, 60 min pre-treatment, 25 pfu/cell, 6 hr
Experimental: HSV-1 entry was assayed as described in Shukla et al., Cell 99:13-22 (1999). CHO-K1 cells were grown in 6-well plates to subconfluence and then transfected with 2.5 μg of expression plasmids for gD receptors nectin-1 (pBG38), HVEM (pBec10), 3-OST-3 isoform (pDS43), or pCDNA3.1 (empty vector) using LipofectAMINE (Gibco/BRL). At 16 h post-transfection, the cells were replated into 96-well dishes for pre-incubation with peptides at different concentrations for 60 min at room temperature. In parallel, natural target cells (HeLa, CF, and RPE) were also pre-treated with the peptides for the same duration. In all cases, unbound peptides were removed after washing 3× with PBS. Thereafter, cells were infected for 6 h with a recombinant virus, HSV-1 (KOS) gL86, at multiple plaque forming units (PFUs) and β-galactosidase assays were performed using either a soluble substrate o-nitrophenyl-β-D-galactopyranoside (ONPG at 3.0 mg/ml; ImmunoPure, Pierce) or X-gal (Sigma). For the soluble substrate, the enzymatic activity was measured at 410 nm using a micro-plate reader (Spectra Max 190, Molecular Devices, Sunnyvale, Calif.). For the X-gal assay, cells were fixed (2% formaldehyde and 0.2% glutaraldehyde) and permeabilized (2 mM MgCl2, 0.01% deoxycholate, and 0.02% nonidet NP-40 (Sigma)). 1 ml of β-galactosidase reagent (1.0 mg/ml X-gal in ferricyanide buffer) was added to each well and incubated at 37° C. for 90 min before the cells were examined using bright field microscopy under the 20× objectives of the inverted microscope (Zeiss Axiovert 100 M).
The ability of the G1 and G2 peptides to block HSV-1 entry into natural target cells (HeLa and primary cultures of human CF) was compared. A similar dosage response curve was generated when HeLa (FIG. 2A) or CF (FIG. 2B) were pre-treated with G1 or G2 peptides during HSV-1 entry. […] HeLa cells (FIG. 2A) and primary cultures of human corneal fibroblasts (CF) (FIG. 2B) were tested. Cells in 96-well plates were pre-treated for 60 min with indicated mM concentrations of G1, G2, or Cp peptides. Mock-treated cells (abbreviated as C) served as a control. Pretreated cells were infected with a β galactosidase-expressing recombinant virus HSV-1 (KOS) HSV-1 gL86 (25 pfu/cell) for 6 hr. Viral entry was quantitated as described above in reference to FIG. 1. Confirmation of HSV-1 entry blocking activity of G1, G2, and control (Cp) peptides on a per cell basis was obtained after cells were infected as described above followed by X-gal (1.0 mg/ml) staining (Right panels), which yields an insoluble blue product upon hydrolysis by β-galactosidase expressed from the input viral genomes. […] Microscopy was performed using a 20× objective of Zeiss Axiovert 100.

[1] = system: GFP-expressing HHV-8 (rHHV-8.152); test: HHV-8 infection assay in HCjE cells; assay type: cell-based, human herpesvirus-8; conditions: for GFP-expression of HHV-8 (RFU): 48 h, fluorescence reader (FIG. 5C); for fluorescence from GFP virus replication (microscopy): fluorescent microscope (FIG. 5D)
Experimental: HCjE cells grown in chamber slides (Labteck) or in a 96 well plate were pre-treated with G1, G2, or control peptides for 60 min at room temperature followed by inoculation with recombinant rHHV-8.152, expressing the green fluorescent protein (GFP). Viera et al., J. Virol. 72:5182-5188 (2000). 48-hr post-infection, GFP-positive cells were visualized under microscope (Zeiss Axioverst 100M). HHV-8 infection was determined as relative fluorescence units (RFU) using GENios Pro plate reader (TECAN) at 480-nm excitation and 520-nm emission frequencies. Five measurements of negative control, positive control, and the test samples were performed. Data were expressed as mean±SD.
The ability to block HHV-8 infection was examined in human conjunctival epithelial (HCjE) cells, a natural target for HHV-8 infection. Human conjunctival (HCjE) cells were pre-incubated with G1, G2 or control peptide (Cp) were infected with HHV-8 virions for 48 h at 37° C. After incubation the cells were washed thoroughly to remove unbound viruses. GFP-expression of HHV-8 was quantitated by determining relative fluorescence units (RFU) using a 96-well fluorescence reader (TECAN). Emission of fluorescence indicates virus infection. […] This was confirmed by examination of individual cells by fluorescence microscopy.
Viral replication in HCjE cells was visualized under fluorescent microscope (Zeiss Axiovert 100) in cells that were pretreated with G1, G2 or Cp, as described above (FIG. 5D). Asterisks indicate significant difference from controls and/or treatments (P<0.05, t test) and error bars represent SD. […] G1 may have some activity but the virus can possibly overcome it easily.

Sequence	blocking of HSV-1 entry/infection (HSV-1 (KOS) gL86)	GFP-expression of HHV-8 (RFU) [1]	fluorescence from GFP virus replication (microscopy) [1]	effectiveness in blocking entry compared with G1 (HSV-1 (KOS) gL86; in virtually all cases (FIGS. 1 and 2))
LRSRTKIIRIRH [G1, LRSRTKIIRIRH]	effective in blocking infection of individual cells	not found to be statistically significant	fluorescence was more easily seen	
MPRRRRIRRRQK [G2, MPRRRRIRRRQK]	effective in blocking infection of individual cells	relatively low GFP-expression	did not show fluorescence	slightly more effective in blocking entry than G1
RVCGSIGKEVLG [Cp, reference compound]	no effect on HSV-1 entry		fluorescence was more easily seen	
